In brackets after ≈: the same amount, converted by molar mass. No end group written: not given here.

Series [1] has as its system A. baumannii ATCC 19,606. As to the kind of experiment: microbe, parasite or virus in culture. It counts as cell-based, Acinetobacter baumannii. The conditions noted are these: A. baumannii ATCC 19,606; broth microdilution (modified CLSI), MHB, 2–8 × 10^5 CFU/mL, 24 h, 37 °C, triplicate. The source says: (§1) Ten strains of both Gram-positive and -negative bacteria, including Staphylococcus aureus ATCC 25,923, S. epidermidis ATCC 12,228, Bacillus cereus ATCC 11,778, Listeria monocytogenes 10403S, Salmonella typhimurium ATCC 13,311, Pseudomonas aeruginosa ATCC 27,853, Shigella sonnei ATCC 11,060, A. baumannii ATCC 19,606, Escherichia coli ATCC 25,922 and E. coli O157:H7, were used in this study. Eight clinical isolates of multidrug-resistant (MDR) and extensively drug-resistant (XDR) A. baumannii, isolated from human (blood, sputum, respiratory sample, sterile site sample and urine), were kindly provided by Asst. Prof. Dr. Sakawrat Kanthawong (Faculty of Medicine, Khon Kaen University, Thailand) (Table S1). All bacterial strains, excluding L. monocytogenes 10403S and E. coli, were cultured in tryptic soy broth (TSB). L. monocytogenes was grown in TSB supplemented with 0.6% yeast extract (TSB-YE), and E. coli was cultured in Luria broth (LB). All of bacteria were cultured at 37 °C with continuous shaking at 220 rpm.
(§2) Minimum inhibitory concentration (MIC) of peptides and antibiotics was assessed by a modified version of the broth microdilution method from the Clinical and Laboratory Standards Institute (CLSI) as previously described. In brief, mid-log phase growths of microbial strains were cultured in Müeller-Hinton broth (MHB) with an initial inoculum of 2–8 × 10^5 CFU/mL. Bacteria suspensions were incubated in sterile 96-well plates with test agents at desired concentrations. […] Minimum bactericidal concentration (MBC) determination was performed using a modified version of the colony count assay. In brief, fifty µl of all non-turbid wells from MIC experiments were spread on agar plates. The MBC value was defined as the lowest concentration of peptides with no colony growth on the plate. All assays were performed in triplicate.
On the technique in general: In broth dilution the organism is exposed to a series of concentrations in liquid medium.

Series [2] relates to Bacillus cereus ATCC 11,778. Type of series: cell-based. As to conditions: B. cereus ATCC 11,778; broth microdilution, MHB, 24 h, 37 °C, triplicate.
Description: as §1, §2

Series [3] has as its system Escherichia coli O157:H7 MT strain. Type of series: cell-based. The conditions noted are these: E. coli O157:H7 MT strain; broth microdilution, MHB, 24 h, 37 °C, triplicate.
Description: as §1, §2

The test system of series [4] is Listeria monocytogenes 10403S. Type of series: cell-based. The conditions noted are these: L. monocytogenes 10403S; broth microdilution, MHB, 24 h, 37 °C, triplicate.
Description: as §1, §2

The subject of series [5] is Pseudomonas aeruginosa ATCC 27,853. Type of series: cell-based. The conditions noted are these: P. aeruginosa ATCC 27,853; broth microdilution, MHB, 24 h, 37 °C, triplicate.
Description: as §1, §2

Series [6] has as its system Salmonella Typhimurium ATCC 13,311. Type of series: cell-based. As to conditions: S. Typhimurium ATCC 13,311; broth microdilution, MHB, 24 h, 37 °C, triplicate.
Description: as §1, §2

For series [7], the system named is Shigella sonnei ATCC 11,060. It counts as cell-based. The conditions noted are these: S. sonnei ATCC 11,060; broth microdilution, MHB, 24 h, 37 °C, triplicate.
Description: as §1, §2

The subject of series [8] is Staphylococcus epidermidis ATCC 12,228. Type of series: cell-based. As to conditions: S. epidermidis ATCC 12,228; broth microdilution, MHB, 24 h, 37 °C, triplicate.
Description: as §1, §2

Series [9] deals with mouse fibroblast (L929) cells. As to the kind of experiment: In vitro cytotoxicity assay (MTT). The conditions noted are these: 24 h, peptide 62.5 µg/mL. Type of series: cell-based. The method, then:
The colorimetric 3-(4,5 dimethylthiazol-2-yl)-2,5-diphenyltetrazolium bromide (MTT; Invitrogen) dye reduction assay was used to determine the cytotoxicity of peptides on mouse fibroblast (L929) cells (NCTC clone 929) according to a modified MTT assay. L929 cells were cultured in Dulbecco’s Modified Eagle Medium (DMEM; Gibco) containing 10% fetal bovine serum (FBS; Gibco) and 100 U/ml penicillin–streptomycin in a fully humidified atmosphere of 95% air and 5% CO2 at 37 °C. The cells (10^5 cells/well) were seeded on 96-well plates and incubated with serially diluted peptide (0.98 to 250 μg/ml) for 24 h. At the end of incubation period, MTT solution (100 µl, 0.4 mg/ml) was added to each well and incubated for 4 h. The supernatants were removed and replaced by 100 µl of DMSO to dissolve the purple formazan crystals. Absorbance was measured using a MultiskanTM FC microplate reader at a wavelength of 570 nm. Cells without peptides served as negative controls. Cell viability (percentage) was calculated using the following equation: %Cell viability=OD570of treated sample-ODBlank/OD570of control-ODBlank×100%

Series [10] concerns Escherichia coli ATCC 25,922. It counts as cell-based. The conditions noted are these: E. coli ATCC 25,922; broth microdilution, MHB, 24 h, 37 °C, triplicate.
Description: as §1, §2

Series [11] relates to Staphylococcus aureus ATCC 25,923. It counts as cell-based. The conditions noted are these: S. aureus ATCC 25,923; broth microdilution, MHB, 24 h, 37 °C, triplicate.
Description: as §1, §2

Series [12] concerns human red blood cells (hRBCs). As to the kind of experiment: Hemolysis assay. Type of series: cell-based. As to conditions: peptide concentration that caused 10% hemolysis; 2% (v/v) hRBCs in PBS pH 7.4, 0.98 to 250 μg/ml, 1 h, 37 °C, OD 405 nm, triplicate. As to the method: The hemolytic activity of peptides was determined as the amount of hemoglobin released from lysed human red blood cells (hRBCs) after treatment with peptide. Fresh hRBCs were collected from a healthy volunteer in polycarbonate tubes containing heparin. Then, the collected packed RBCs were washed at least three times (or until the supernatant was clear) with sterile phosphate-buffered saline pH 7.4 (PBS) and centrifuged at 2,000 × g for 5 min. The 2% (v/v) of washed hRBCs in PBS were incubated with serially diluted peptides (0.98 to 250 μg/ml) for 1 h at 37 °C. After centrifugation, the supernatants were monitored for optical density (OD) at 405 nm using a Multiskan FC Microplate Reader[21]. Values for 0% (negative control) and 100% (positive control) lysis were determined by incubating the hRBCs with PBS only (ODBlank) and 0.1% (v/v) Triton X-100 (ODTriton X-100), respectively. The experiments were performed in triplicate. The percent hemolysis was calculated according to the following equation: %Hemolysis=ODSample-ODBlank/ODTriton X-100-ODBlank×100

With `CC[C@H](C)[C@H](NC(=O)CN)C(=O)NCC(=O)N[C@@H](C)C(=O)N[C@H](C(=O)N[C@@H](CC(C)C)C(=O)N[C@@H](CCCCN)C(=O)N[C@H](C(=O)N[C@@H](CC(C)C)C(=O)N[C@H](C(=O)N[C@H](C(=O)NCC(=O)N[C@@H](CC(C)C)C(=O)N1CCC[C@H]1C(=O)N[C@@H](C)C(=O)N[C@@H](CC(C)C)C(=O)N[C@H](C(=O)N[C@@H](CO)C(=O)N[C@@H](Cc1c[nH]c2ccccc12)C(=O)N[C@H](C(=O)N[C@@H](CCCCN)C(=O)N[C@@H](CCCNC(=N)N)C(=O)N[C@@H](CCCCN)C(=O)N[C@@H](CCCNC(=N)N)C(=O)N[C@@H](CCC(N)=O)C(=O)N[C@@H](CCC(N)=O)C(N)=O)[C@@H](C)CC)[C@@H](C)CC)[C@@H](C)O)[C@@H](C)O)C(C)C)C(C)C` [Melittin, reference compound], the MIC in series [1] turned out to be 3.91 µg/mL (≈ 1.37 µM); in series [2] it was 7.81 µg/mL (≈ 2.74 µM); in series [3], 7.81 µg/mL (≈ 2.74 µM); in series [4], 3.91 µg/mL (≈ 1.37 µM); in series [5], 7.81 µg/mL (≈ 2.74 µM); in [6], 3.91 µg/mL (≈ 1.37 µM). Besides, the MIC in [7] and in series [8] was 3.91 µg/mL (≈ 1.37 µM) in each case. Also, the cell viability result in series [9] is listed as “less than 5%”.
For the compound RLFRRVKKVAGKIAKRIWKILRR-NH2 [A3P7], the MIC in series [1] was 7.81 µg/mL; in series [2], 7.81 µg/mL; in [10], 7.81 µg/mL; in [3], 15.63 µg/mL; in series [4], 3.91 µg/mL; in series [5], 7.81 µg/mL. In addition, the MIC in [6], in [7], in series [11] and in series [8] was 7.81 µg/mL each time. The “MHC, minimum hemolytic concentration” value in series [12] worked out at 1.95 µg/mL.
